Values of other authors as cited in patent US20150050333A1, “PHARMACEUTICAL COMPOSITION COMPRISING OLMESARTAN MEDOXOMIL AND ROSUVASTATIN OR ITS SALT” (priority 2012, published 2015).

Tested on: CYP450

For CCCc1nc(C(C)(C)O)c(C(=O)OCc2oc(=O)oc2C)n1Cc1ccc(-c2ccccc2-c2nnn[nH]2)cc1 [Olmesartan medoxomil], the “Metabolism of olmesartan medoxomil by CYP450” value (after in vivo absorption) is listed as “not metabolized by CYP450”.

In the case of CC(C)c1nc(N(C)S(C)(=O)=O)nc(-c2ccc(F)cc2)c1/C=C/[C@@H](O)C[C@@H](O)CC(=O)O [rosuvastatin], the “Portion of rosuvastatin that is metabolized” value (metabolized mainly by CYP 2C9 and CYP 2C19) is given as 10%.
